This is an account of results in patent publication US20110237566A1, “Therapeutic Macrolide Compounds and Their Use” (MERLION PHARMACEUTICALS PTE LTD, priority 2008, published 2011).

A short description of series [1]: Microsomal stability assay. It counts as in vitro ADME. As to conditions: human, human liver microsomes, pH 7.4, human liver microsomes, 37° C.; for half-life at 50 μM: read-out: T1/2, 50 μm microsomal stability assay. As for the experimental part:
50 μL test sample (50 mM), 25 μL human liver microsomes (20 mg/ml, BD Gentest, catalog no. 452161), 281 μL potassium phosphate buffer (100 mM, pH 7.4), 5 μL NaDPH regenerating system, solution B (BD Biosciences, catalog no. 451200), and 114 μL of water were pre-incubated for 5 min at 37° C. The reaction was initiated by the addition of 25 μL NaDPH regenerating system, solution A (BD Biosciences, catalog no. 451220). After an incubation period of 0, 15, 30, and 60 min at 37° C., 100 μL of the reaction mixture was transferred to an eppendorf tube, followed by addition of 100 μL chilled acetonitrile to quench the reaction. The sample was then centrifuged at 14,000 rpm for 5 min. The supernatant was submitted for LCMS analysis.

The test system of series [2] is A549 human alveolar epithelial cell. As to the kind of experiment: Growth inhibition (cytotoxicity), A549 assay, Cell Titer Glo. Type of series: cell-based. As to conditions: A549, 72 h, A549 cells, 72 hour incubation. How it is done: (§1) The cytotoxicity of each of the MC compounds as described herein was evaluated in the following cell types: A549 human alveolar epithelial cell, PC3 human prostate carcinoma cell, COLO205 human colon adenocarcinoma cell, HEPG2 human hepatoma, OVCAR3 human ovary adenocarcinoma cell, and HL60 human acute myelocytic leukemia (AML) cell.
(§2) A549, PC3, COLO205 and HEPG2 cells were cultured in DMEM (Invitrogen Corporation) with 10% fetal bovine serum, whereas OVCAR3 and HL60 were cultured in the same medium but with 20% fetal bovine serum. For cytotoxocoty measurements the cells were seeded in 96 or 384 well tissue culture treated microtitre plates overnight. Compounds were diluted in appropriate buffers and added to the cells the next day. Following a further 72 hour incubation, cell viability was determined using Cell Titer Glo (Promega Corporation) according to the manufacturers' instructions, and the luminescence measured in Luminoskan Ascent (Thermo Fisher Scientific Inc.).
For orientation: In ATP-based viability assays light output follows the ATP content of the culture.

In series [3] the test system is PC3 human prostate carcinoma cell. As to the kind of experiment: Growth inhibition (cytotoxicity), PC3A assay, Cell Titer Glo. As to conditions: PC-3, 72 h, PC3 cells, 72 hour incubation. It counts as cell-based. How it is done: as §1, §2
Series [4] has as its system OVCAR3 human ovary adenocarcinoma cell. As to the kind of experiment: Growth inhibition (cytotoxicity), OVCAR3 assay, Cell Titer Glo. Type of series: cell-based. As to conditions: Homo sapiens, OVCAR-3, 72 h, OVCAR3 cells, 72 hour incubation. How it is done:
as §1, §2

A short description of series [5]: Stability determination at PBS pH7.2. The note with it: PBS pH 7.2, pH 7.2, PBS pH7.2, 37° C.; read-out: T1/2, PBS buffer stability assay. Type of series: physicochemical. As for the experimental part: Around 0.1 mg of the dried sample was placed in a 2-mL vial, added with 1 mL of PBS pH7.2 and then mixed using a Vortex mixer. The mixture was filtered through a 4 mm Nylon filter with 0.2 μm pore size and the filtrate collected in an hplc vial. The vial was placed in an hplc autosampler maintained at 37° C. just before injection (time=0 h). The stability of the sample was calculated by determining the amount left in solution at specific time intervals. This study was carried out in three trials with the buffer solution as a blank.

`CC[C@H](OC)[C@@H](C)[C@H]1O[C@@H]1C(NCCCN1CCOCC1)C(C)(O)/C=C/C=C(\C)C1OC(=O)C[C@H](O)CC[C@@](C)(O)[C@@H](OC(C)=O)/C=C/[C@@H]1C.O=CO` (single isomer, unassigned) [MC-009b]: the half-life at 50 μM in series [1] is more than 30 min.
Take `CC[C@H](OC)[C@@H](C)[C@H]1O[C@@H]1C1C(Cc2ccccc2)C(=O)OC1(C)/C=C/C=C(\C)C1OC(=O)C[C@H](O)CC[C@@](C)(O)[C@@H](OC(C)=O)/C=C/[C@@H]1C` (single isomer, unassigned) [MC-012a]: the IC50 in series [2] is not above 1000 nM.
As to `CC[C@H](OC)[C@@H](C)[C@H]1O[C@@H]1C(NCc1ccc(Br)cc1)C(C)(O)/C=C/C=C(\C)C1OC(=O)C[C@H](O)CC[C@@](C)(O)[C@@H](OC(C)=O)/C=C/[C@@H]1C.O=CO` (single isomer, unassigned) [MC-014b], the half-life at 50 μM in series [1] was more than 30 min.
`CC[C@H](OC)[C@@H](C)[C@H]1O[C@@H]1C(NCCc1ccc(Cl)cc1Cl)C(C)(O)/C=C/C=C(\C)C1OC(=O)C[C@H](O)CC[C@@](C)(O)[C@@H](OC(C)=O)/C=C/[C@@H]1C` (single isomer, unassigned) [MC-017b] registered an IC50 in series [2] not above 1000 nM.
In series [2], `CC[C@H](OC)[C@@H](C)[C@H]1O[C@@H]1C(NCc1c(Cl)cccc1Cl)C(C)(O)/C=C/C=C(\C)C1OC(=O)C[C@H](O)CC[C@@](C)(O)[C@@H](OC(C)=O)/C=C/[C@@H]1C` (single isomer, unassigned) [MC-018a] gave an IC50 not above 1000 nM.
The same measure, in the same setting: as for `CC[C@H](OC)[C@@H](C)[C@H]1O[C@@H]1C(NCc1cccc(Cl)c1)C(C)(O)/C=C/C=C(\C)C1OC(=O)C[C@H](O)CC[C@@](C)(O)[C@@H](OC(C)=O)/C=C/[C@@H]1C` (single isomer, unassigned) [MC-027a], the figure is not above 1000 nM.
In the case of `CC[C@H](OC)[C@@H](C)[C@H]1O[C@@H]1C(NCc1ccc2c(c1)OCO2)C(C)(O)/C=C/C=C(\C)C1OC(=O)C[C@H](O)CC[C@@](C)(O)[C@@H](OC(C)=O)/C=C/[C@@H]1C.O=CO` (single isomer, unassigned) [MC-030a], the IC50 in series [3] and in series [4] was not above 100 nM each time. Besides, in series [1], the half-life at 50 μM was more than 30 min.
`CC[C@H](OC)[C@@H](C)[C@H]1O[C@@H]1C(NCc1ccc(N2CCCNCC2)cc1)C(C)(O)/C=C/C=C(\C)C1OC(=O)C[C@H](O)CC[C@@](C)(O)[C@@H](OC(C)=O)/C=C/[C@@H]1C` (single isomer, unassigned) [MC-041a] showed an IC50 in series [2] not above 1000 nM.
Regarding `CC[C@H](OC)[C@@H](C)[C@H]1O[C@@H]1C(NCc1ccc2[nH]ccc2c1)C(C)(O)/C=C/C=C(\C)C1OC(=O)C[C@H](O)CC[C@@](C)(O)[C@@H](OC(C)=O)/C=C/[C@@H]1C.O=CO` (single isomer, unassigned) [MC-043a], in series [1], the half-life at 50 μM was more than 30 min.
In turn, `CC[C@H](OC)[C@@H](C)[C@H]1O[C@@H]1C(NCc1ccc(NC2CC2)cc1)C(C)(O)/C=C/C=C(\C)C1OC(=O)C[C@H](O)CC[C@@](C)(O)[C@@H](OC(C)=O)/C=C/[C@@H]1C` (single isomer, unassigned) [MC-044a] showed an IC50 in series [2] not above 1000 nM.
With `CC[C@H](OC)[C@@H](C)[C@H]1O[C@@H]1C(NCc1ccc(Cl)nc1)C(C)(O)/C=C/C=C(\C)C1OC(=O)C[C@H](O)CC[C@@](C)(O)[C@@H](OC(C)=O)/C=C/[C@@H]1C.O=CO` (single isomer, unassigned) [MC-046a], the half-life at 50 μM in series [1] was more than 30 min.
`CC[C@H](OC)[C@@H](C)C1O[C@@H]1C(NCc1ccc(Cl)nc1)C(C)(O)/C=C/C=C(\C)[C@H]1OC(=O)C[C@H](O)CC[C@@](C)(O)[C@@H](OC(C)=O)/C=C/[C@@H]1C` (stereo in doubt) [MC-046]: the half-life at 0.1 mg/mL in series [5] was more than 30 min.
Turning to `CC[C@H](OC)[C@@H](C)C1O[C@@H]1C(N(C)Cc1ccc(Cl)cc1)C(C)(O)/C=C/C=C(\C)[C@H]1OC(=O)C[C@H](O)CC[C@@](C)(O)[C@@H](OC(C)=O)/C=C/[C@@H]1C` (stereo in doubt) [MC-047], the half-life at 0.1 mg/mL in series [5] was more than 30 min.
In the case of `CC[C@H](OC)[C@@H](C)[C@H]1O[C@@H]1C(N(CCO)Cc1ccc2ccccc2c1)C(C)(O)/C=C/C=C(\C)[C@H]1OC(=O)C[C@H](O)CCC(C)(O)[C@@H](OC(C)=O)/C=C/[C@@H]1C` (stereo in doubt) [MC-051], the IC50 in series [2] is not above 1000 nM.
Still for that read-out and setting: as for `CC[C@H](OC)[C@@H](C)[C@H]1O[C@@H]1C(N(CCO)Cc1ccc(C(F)(F)F)cc1)C(C)(O)/C=C/C=C(\C)[C@H]1OC(=O)C[C@H](O)CCC(C)(O)[C@@H](OC(C)=O)/C=C/[C@@H]1C` (stereo in doubt) [MC-053], the figure is not above 1000 nM; as for `CC[C@H](OC)[C@@H](C)[C@H]1O[C@@H]1C(NCc1ccccc1)C(C)(/C=C/C=C(\C)[C@H]1OC(=O)C[C@H](O)CCC(C)(O)[C@@H](OC(C)=O)/C=C/[C@@H]1C)NCc1ccccc1` (stereo partly shown) [MC-001], not above 1000 nM.
For the molecule `CC[C@H](OC)[C@@H](C)[C@H]1O[C@@H]1C(NCc1ccc(F)c(F)c1)C(C)(O)/C=C/C=C(\C)[C@H]1OC(=O)C[C@H](O)CC[C@@](C)(O)[C@@H](OC(C)=O)/C=C/[C@@H]1C.O=CO` (stereo partly shown) [MC-029], the IC50 in series [3] and in series [4] was not above 100 nM throughout. The half-life at 50 μM in series [1] is more than 30 min.
For `CC[C@H](OC)[C@@H](C)[C@H]1O[C@@H]1C(NCc1ccc2c(c1)OCO2)C(C)(O)/C=C/C=C(\C)C1OC(=O)C[C@H](O)CC[C@@](C)(O)[C@@H](OC(C)=O)/C=C/[C@@H]1C` (stereo partly shown) [MC-030], in series [5], the half-life at 0.1 mg/mL is more than 30 min.
As to `CC[C@H](OC)[C@@H](C)[C@H]1O[C@@H]1C(NCc1ccc(Cl)cc1F)C(C)(O)/C=C/C=C(\C)[C@H]1OC(=O)C[C@H](O)CC[C@@](C)(O)[C@@H](OC(C)=O)/C=C/[C@@H]1C.O=CO` (stereo partly shown) [MC-032], the IC50 in series [3] and in series [4] was not above 100 nM throughout. Besides, the half-life at 50 μM in series [1] is more than 30 min.
On to `CC[C@H](OC)[C@@H](C)[C@H]1O[C@@H]1C(NCC1CCCCCC1)C(C)(O)/C=C/C=C(\C)[C@H]1OC(=O)C[C@H](O)CC[C@@](C)(O)[C@@H](OC(C)=O)/C=C/[C@@H]1C.O=CO` (stereo partly shown) [MC-034], for which the IC50 in series [2] is not above 1000 nM. Further, in series [1] (5 μm, read-out: T1/2, 5 μm microsomal stability assay), the half-life at 5 μM came to 6.1 min.
For `CC[C@H](OC)[C@@H](C)[C@H]1O[C@@H]1C(NCc1ccc(N2CCOCC2)cc1)C(C)(O)/C=C/C=C(\C)C1OC(=O)C[C@H](O)CC[C@@](C)(O)[C@@H](OC(C)=O)/C=C/[C@@H]1C` (stereo partly shown) [MC-037], the half-life at 0.1 mg/mL in series [5] was more than 30 min.
On to `CC[C@H](OC)[C@@H](C)[C@H]1O[C@@H]1C(NCc1ccc(N2CCOCC2)cc1)C(C)(O)/C=C/C=C(\C)C1OC(=O)C[C@H](O)CC[C@@](C)(O)[C@@H](OC(C)=O)/C=C/[C@@H]1C` (stereo partly shown) [MC-037d], for which the half-life at 50 μM in series [1] is more than 30 min.
`CC[C@H](OC)[C@@H](C)[C@H]1O[C@@H]1C(NCc1ccc(N2CC(C)OC(C)C2)cc1)C(C)(O)/C=C/C=C(\C)C1OC(=O)C[C@H](O)CC[C@@](C)(O)[C@@H](OC(C)=O)/C=C/[C@@H]1C` (stereo partly shown) [MC-042c] yielded an IC50 in series [2] not above 1000 nM.
Consider `CC[C@H](OC)[C@@H](C)[C@H]1O[C@@H]1C(NCc1ccc2[nH]ccc2c1)C(C)(O)/C=C/C=C(\C)C1OC(=O)C[C@H](O)CC[C@@](C)(O)[C@@H](OC(C)=O)/C=C/[C@@H]1C` (stereo partly shown) [MC-043], for which the half-life at 0.1 mg/mL in series [5] was more than 30 min.
Turning to `CC[C@H](OC)[C@@H](C)[C@H]1O[C@@H]1C(NCc1ccc2[nH]ccc2c1)C(C)(O)/C=C/C=C(\C)C1OC(=O)C[C@H](O)CC[C@@](C)(O)[C@@H](OC(C)=O)/C=C/[C@@H]1C` (stereo partly shown) [MC-043c], the IC50 in series [2] was not above 1000 nM.
`CC[C@H](OC)[C@@H](C)[C@H]1O[C@@H]1C(N(CCCO)Cc1ccc(Cl)cc1)C(C)(O)/C=C/C=C(\C)[C@H]1OC(=O)C[C@H](O)CC[C@@](C)(O)[C@@H](OC(C)=O)/C=C/[C@@H]1C` (stereo partly shown) [MC-045] gave an IC50 in series [2] not above 1000 nM.
The same measure, in the same setting: to `CC[C@H](OC)[C@@H](C)[C@H]1O[C@@H]1C(NS(=O)(=O)c1ccc(F)c(F)c1)C(C)(O)/C=C/C=C(\C)C1OC(=O)C[C@H](O)CCC(C)(O)[C@@H](OC(C)=O)/C=C/[C@@H]1C` (stereo partly shown) [MC-58b] belongs not above 1000 nM.

By IC50 is commonly meant the midpoint of a concentration-inhibition curve. The low end stands for greater potency in that assay, the high end for weaker potency in that assay.
